What was measured:
Format in all cases: cell-based, human
MCF-7 breast cancer cell = experiment: MTT anti-proliferative assay, MCF-7; settings: for IC50: MTT, 48 h
Method in brief: (§1)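 MTT read-out of net cell-growth inhibition after compound exposure of cells seeded in 96-well plates. Lines were ATCC-sourced and grown in DMEM plus FBS.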

[1] = tested on: BEL-7402 liver cancer cell; experiment: MTT anti-proliferative assay, BEL-7402; settings: for IC50: MTT, 48 h
Method in brief: as §1

[2] = tested on: Raji B lymphoblastoid cell; experiment: MTT anti-proliferative assay, Raji; settings: for IC50: MTT, 48 h, read-out: IC50 Raji
Method in brief: as §1

HepG2 hepatoma cell = experiment: MTT anti-proliferative assay, HepG2; settings: for IC50: MTT, 48 h, read-out: IC50 HepG-2
Method in brief: as §1

[3] = tested on: MGC-803 late stage differentiation gastric cancer cell; experiment: MTT anti-proliferative assay, MGC-803; settings: for IC50: MTT, 48 h
Method in brief: as §1

[4] = tested on: MCF-10A normal breast cell; experiment: MTT assay, MCF-10A normal cells; settings: 48 h
Method in brief: as §1

A549 lung cancer cell = experiment: MTT anti-proliferative assay, A549; settings: for IC50: MTT, 48 h
Method in brief: as §1

AGS gastric cancer cell = experiment: MTT anti-proliferative assay, AGS; settings: for IC50: MTT, 48 h
Method in brief: as §1

[5] = tested on: HCT116 colectal cancer cell; experiment: MTT anti-proliferative assay, HCT116; settings: for IC50: MTT, 48 h, read-out: IC50 HCT-116
Method in brief: as §1

[6] = tested on: SGC-7901 early differentiation gastric cancer cell; experiment: MTT anti-proliferative assay, SGC-7901; settings: for IC50: MTT, 48 h
Method in brief: as §1

L-02 normal liver cell = experiment: MTT assay, L-02 normal cells; settings: 48 h
Method in brief: as §1

[7] = tested on: diffuse large B-cell lymphoma SU-DHL-10 cell; experiment: MTT anti-proliferative assay, SU-DHL-10; settings: for IC50: MTT, 48 h, read-out: IC50 SU-DHL-10
Method in brief: as §1

[8] = tested on: HeLa cervical cancer cell; experiment: MTT anti-proliferative assay, HeLa; settings: MTT, 48 h
Method in brief: as §1

Row | SMILES | IC50 (MCF-7 breast cancer cell) [µM] | IC50 [1] [µM] | IC50 [2] [µM] | SI (selectivity index), IC50 (L-02)/IC50 (HepG-2) (HepG2 hepatoma cell) | IC50 (HepG2 hepatoma cell) [µM] | SI (selectivity index), IC50 (L-02)/IC50 (MGC-803) [3] | IC50 [3] [µM] | IC50 [4] [µM] | IC50 (A549 lung cancer cell) [µM] | SI (selectivity index), IC50 (L-02)/IC50 (AGS) (AGS gastric cancer cell) | IC50 (AGS gastric cancer cell) [µM] | IC50 [5] [µM] | IC50 [6] [µM] | IC50 (L-02 normal liver cell) [µM] | IC50 [7] [µM] | IC50 [8] [µM] | SI (selectivity index), IC50 (L-02)/IC50 (HCT-116) [5] | SI (selectivity index), IC50 (L-02)/IC50 (BEL-7402) [1] | SI (selectivity index), IC50 (L-02)/IC50 (Raji) [2] | SI (selectivity index), IC50 (L-02)/IC50 (SGC-7901) [6] | other results
1 | N#C/C(=C\c1ccc(Cl)cc1)c1ccccc1OC(F)(F)F [Compound 1c2b] | > 100 | > 100 | > 100 | > 1.4 | 70.5 ± 25.4 | > 3.4 | 29 ± 8.3 | > 100 | > 100 | > 3.1 | 31.4 ± 8.3 | > 100 | > 100 | > 100 | > 100 | > 100 | – | – | – | – | –
2 | N#C/C(=C\c1ccc(Br)cc1)c1ccccc1OC(F)(F)F [Compound 1c2c] | > 100 | > 100 | 42.4 ± 1.7 | > 1.5 | 27.9 ± 2.4 | > 2.1 | 19.6 ± 6.7 | > 100 | > 100 | > 2.5 | 16.7 ± 2.3 | 17.2 ± 5.2 | > 100 | 42.2 ± 11.5 | > 100 | > 100 | > 2.4 | – | – | – | –
3 | Cc1ccc(/C=C(\C#N)c2ccccc2OC(F)(F)F)cc1 [Compound 1c2d] | > 100 | 17.4 ± 4.2 | 60.5 ± 19.1 | > 3.7 | 26.7 ± 10.1 | > 7.6 | 13.1 ± 3.6 | > 100 | 50.7 ± 7.4 | > 15.6 | 6.3 ± 0.4 | > 100 | 50.1 ± 5.9 | > 100 | > 100 | > 100 | – | > 5.7 | > 1.6 | > 1.9 | SI (selectivity index), IC50 (L-02)/IC50 (A549) (A549 lung cancer cell): > 1.9
4 | COc1ccc(/C=C(\C#N)c2ccccc2OC(F)(F)F)cc1 [Compound 1c2e] | > 100 | 10.8 ± 2.3 | 41.3 ± 5.5 | > 1.4 | 24.9 ± 7 | > 14.2 | 2.5 ± 1.1 | > 100 | > 100 | > 4.7 | 7.6 ± 0.6 | 8.4 ± 2.4 | 7.8 ± 0.8 | 36.1 ± 4.8 | > 100 | 75.8 ± 12.4 | > 4.2 | > 3.3 | – | > 4.5 | –
5 | Cc1ccc(/C(C#N)=C/c2ccc(N(C)C)cc2)cc1 [Compound 1d2a] | > 100 | > 100 | 7.9 ± 0.5 | – | > 100 | > 5.3 | 18.8 ± 1.7 | > 100 | > 100 | > 4.3 | 23 ± 1 | > 100 | > 100 | > 100 | 19.9 ± 0.7 | > 100 | – | – | > 12.5 | – | SI (selectivity index), IC50 (L-02)/IC50 (SU-DHL-10) [7]: > 5.0
6 | CCN(CC)c1ccc(/C=C(\C#N)c2ccc(C)cc2)cc1 [Compound 1d2b] | 52.3 ± 2.2 | 65.4 ± 2.5 | 11.8 ± 0.4 | – | > 100 | > 11.5 | 8.6 ± 0.04 | > 100 | > 100 | > 4.1 | 24.1 ± 0.2 | 3.1 ± 0.5 | > 100 | > 100 | 42.6 ± 11.4 | > 100 | > 32.0 | > 1.5 | > 8.4 | – | SI (selectivity index), IC50 (MCF-10A)/IC50 (MCF-7) (MCF-7 breast cancer cell): > 1.9; SI (selectivity index), IC50 (L-02)/IC50 (SU-DHL-10) [7]: > 2.3
7 | COc1ccc(/C(C#N)=C/c2cc(OC)c(OC)c(OC)c2)cc1 [Compound 1e2a] | 36.9 ± 3.6 | 46.8 ± 5.1 | 11.6 ± 4.9 | – | > 100 | > 5.7 | 8.3 ± 1.2 | 28.1 ± 3.6 | > 100 | > 2.8 | 18.4 ± 1.9 | 7.2 ± 0.6 | 38.2 ± 9 | 47.5 ± 12.4 | 27.2 ± 5.3 | > 100 | > 6.5 | > 1.0 | > 4.0 | > 1.2 | SI (selectivity index), IC50 (L-02)/IC50 (SU-DHL-10) [7]: > 1.7
8 | COc1ccc(/C(C#N)=C/c2ccc(N(C)C)cc2)cc1 [Compound 1e2b] | > 100 | > 100 | 12.7 ± 3.8 | – | > 100 | > 6.6 | 15.1 ± 1.2 | > 100 | > 100 | – | > 100 | > 100 | 22.6 | > 100 | > 100 | > 100 | – | – | > 7.8 | > 4.4 | –
9 | CCN(CC)c1ccc(/C=C(\C#N)c2ccc(OC)cc2)cc1 [Compound 1e2c] | > 100 | > 100 | 19.3 ± 0.5 | – | > 100 | – | > 100 | > 100 | > 100 | – | > 100 | > 100 | > 100 | > 100 | 62.3 ± 9.6 | > 100 | – | – | > 5.1 | – | SI (selectivity index), IC50 (L-02)/IC50 (SU-DHL-10) [7]: > 1.6
10 | CN(C)c1ccc(/C=C(\C#N)c2ccc(C(F)(F)F)cc2)cc1 [Compound 1f2a] | > 100 | > 100 | > 100 | – | > 100 | – | > 100 | > 100 | > 100 | – | > 100 | > 100 | > 100 | > 100 | > 100 | > 100 | – | – | – | – | –
11 | CCN(CC)c1ccc(/C=C(\C#N)c2ccc(C(F)(F)F)cc2)cc1 [Compound 1f2b] | > 100 | > 100 | > 100 | – | > 100 | – | > 100 | > 100 | > 100 | – | > 100 | 33 ± 5.8 | > 100 | > 100 | > 100 | > 100 | > 3.0 | – | – | – | –

Reference: paper PMC11071649, “Synthesis and Selective Anticancer Activity Evaluation of 2-phenylacrylonitrile Derivatives as Tubulin Inhibitors” (Current Medicinal Chemistry, 2024)
